Columns and labels:
MALME-3M = test: NCI in vitro screen, SRB percent growth, Melanoma
NCI-H460 = test: NCI in vitro screen, SRB percent growth, Non-Small Cell Lung Cancer
LOX IMVI = test: NCI in vitro screen, SRB percent growth, Melanoma
IGROV1 = test: NCI in vitro screen, SRB percent growth, Ovarian Cancer
CNS cancer cell lines = test: NCI in vitro screen, overall result on CNS cancer cell lines; conditions: Tables I and II
SK-MEL-28 = test: NCI in vitro screen, SRB percent growth, Melanoma
HCT-116 = test: NCI in vitro screen, SRB percent growth, Colon Cancer
SW-620 = test: cells; conditions: Homo sapiens
SF-295 = test: NCI in vitro screen, SRB percent growth, CNS Cancer
ACHN = test: NCI in vitro screen, SRB percent growth, Renal Cancer
SNB-19 = test: NCI in vitro screen, SRB percent growth, CNS Cancer
UACC-62 = test: NCI in vitro screen, SRB percent growth, Melanoma
OVCAR-8 = test: NCI in vitro screen, SRB percent growth, Ovarian Cancer
RXF-631 = test: NCI in vitro screen, SRB percent growth, Renal Cancer
LXFL 529 = test: cells; conditions: Homo sapiens
EKVX = test: cells; conditions: Homo sapiens
786-0 = test: cells; conditions: Homo sapiens
[1] = Log10 Concentration -7.0, 0.1 µM
[2] = Log10 Concentration -4.0, 100 µM
[3] = SW-620, read-out: Percent Growth
[4] = LXFL 529, read-out: Percent Growth
[5] = 786-0, read-out: Percent Growth

COc1ccc2[nH]c3c(C)c4c(c(C)c3c2c1)CN(C)C=C4 [Formula VII]
Percent Growth (MALME-3M; Log10 Concentration -5.0): -31% | Percent Growth (MALME-3M; Log10 Concentration -6.0, 1 µM): 55% | Percent Growth (MALME-3M; [1]): 110% | Percent Growth (MALME-3M; Log10 Concentration -8.0): 112% | TGI (MALME-3M; PG=0): 4.37 µM | GI50 (MALME-3M; PG=+50): 1.41 µM | CC50 (MALME-3M; read-out: LC-50, PG=-50): > 100 µM | Percent Growth (NCI-H460; [2]): -71% | Percent Growth (NCI-H460; Log10 Concentration -6.0, 1 µM): 67% | Percent Growth (NCI-H460; [1]): 85% | Percent Growth (NCI-H460; Log10 Concentration -8.0): 93% | TGI (NCI-H460; PG=0): 9.4 µM | GI50 (NCI-H460; PG=+50): 1.78 µM | CC50 (NCI-H460; read-out: LC-50, PG=-50): 49.5 µM | Percent Growth (LOX IMVI; [2]): -19% | Percent Growth (LOX IMVI; Log10 Concentration -5.0): 58% | Percent Growth (LOX IMVI; Log10 Concentration -6.0, 1 µM): 119% | Percent Growth (LOX IMVI; Log10 Concentration -8.0): 129% | TGI (LOX IMVI; PG=0): 56.9 µM | GI50 (LOX IMVI; PG=+50): 12.8 µM | CC50 (LOX IMVI; read-out: LC-50, PG=-50): > 100 µM | Percent Growth (IGROV1; [2]): -20% | Percent Growth (IGROV1; Log10 Concentration -5.0): 14% | Percent Growth (IGROV1; Log10 Concentration -6.0, 1 µM): 47% | Percent Growth (IGROV1; [1]): 80% | Percent Growth (IGROV1; Log10 Concentration -8.0): 105% | TGI (IGROV1; PG=0): 25.3 µM | GI50 (IGROV1; PG=+50): 0.819 µM | CC50 (IGROV1; read-out: LC-50, PG=-50): > 100 µM | effect against CNS cancer cell lines (CNS cancer cell lines): particularly effective against CNS cancer cell lines | Percent Growth (SK-MEL-28; [2]): -75% | Percent Growth (SK-MEL-28; Log10 Concentration -5.0): 4% | Percent Growth (SK-MEL-28; Log10 Concentration -6.0, 1 µM): 91% | Percent Growth (SK-MEL-28; [1]): 105% | Percent Growth (SK-MEL-28; Log10 Concentration -8.0): 101% | TGI (SK-MEL-28; PG=0): 11.3 µM | GI50 (SK-MEL-28; PG=+50): 2.95 µM | CC50 (SK-MEL-28; read-out: LC-50, PG=-50): 48.6 µM | Percent Growth (HCT-116; [2]): -28% | Percent Growth (HCT-116; Log10 Concentration -5.0): 29% | Percent Growth (HCT-116; Log10 Concentration -6.0, 1 µM): 80% | Percent Growth (HCT-116; [1]): 101% | Percent Growth (HCT-116; Log10 Concentration -8.0): 106% | TGI (HCT-116; PG=0): 32.2 µM | GI50 (HCT-116; PG=+50): 3.88 µM | CC50 (HCT-116; read-out: LC-50, PG=-50): > 100 µM | GI50 (SW-620; SW-620): 1.05 µM | CC50 (SW-620; SW-620, read-out: LC-50): > 100 µM | activity at 0.01 µM (SW-620; [3]): 89% | activity at 0.1 µM (SW-620; [3]): 77% | activity at 1 µM (SW-620; [3]): 51% | activity at 10 µM (SW-620; [3]): 18% | activity at 100 µM (SW-620; [3]): -39% | IC (TGI) (SW-620; SW-620, read-out: TGI): 20.4 µM | Percent Growth (SF-295; [2]): -51% | Percent Growth (SF-295; Log10 Concentration -5.0): -30% | Percent Growth (SF-295; Log10 Concentration -6.0, 1 µM): 11% | Percent Growth (SF-295; [1]): 65% | Percent Growth (SF-295; Log10 Concentration -8.0): 88% | TGI (SF-295; PG=0): 1.89 µM | GI50 (SF-295; PG=+50): 0.191 µM | CC50 (SF-295; read-out: LC-50, PG=-50): 89.5 µM | Percent Growth (ACHN; [2]): -4% | Percent Growth (ACHN; Log10 Concentration -5.0): 79% | Percent Growth (ACHN; Log10 Concentration -6.0, 1 µM): 102% | Percent Growth (ACHN; [1]): 113% | Percent Growth (ACHN; Log10 Concentration -8.0): 113% | TGI (ACHN; PG=0): 89.1 µM | GI50 (ACHN; PG=+50): 22.4 µM | CC50 (ACHN; read-out: LC-50, PG=-50): > 100 µM | Percent Growth (SNB-19; [2]): 1% | Percent Growth (SNB-19; Log10 Concentration -5.0): 0% | Percent Growth (SNB-19; Log10 Concentration -6.0, 1 µM): 16% | Percent Growth (SNB-19; [1]): 84% | Percent Growth (SNB-19; Log10 Concentration -8.0): 95% | TGI (SNB-19; PG=0): > 100 µM | GI50 (SNB-19; PG=+50): 0.318 µM | CC50 (SNB-19; read-out: LC-50, PG=-50): > 100 µM | Percent Growth (UACC-62; [2]): -44% | Percent Growth (UACC-62; Log10 Concentration -5.0): 31% | Percent Growth (UACC-62; Log10 Concentration -6.0, 1 µM): 88% | Percent Growth (UACC-62; [1]): 118% | Percent Growth (UACC-62; Log10 Concentration -8.0): 129% | TGI (UACC-62; PG=0): 26.1 µM | GI50 (UACC-62; PG=+50): 4.68 µM | CC50 (UACC-62; read-out: LC-50, PG=-50): > 100 µM | Percent Growth (OVCAR-8; [2]): -17% | Percent Growth (OVCAR-8; Log10 Concentration -5.0): 5% | Percent Growth (OVCAR-8; Log10 Concentration -6.0, 1 µM): 28% | Percent Growth (OVCAR-8; [1]): 67% | Percent Growth (OVCAR-8; Log10 Concentration -8.0): 72% | TGI (OVCAR-8; PG=0): 16.6 µM | GI50 (OVCAR-8; PG=+50): 0.274 µM | CC50 (OVCAR-8; read-out: LC-50, PG=-50): > 100 µM | Percent Growth (RXF-631; [2]): -29% | Percent Growth (RXF-631; Log10 Concentration -5.0): 18% | Percent Growth (RXF-631; Log10 Concentration -6.0, 1 µM): 38% | Percent Growth (RXF-631; [1]): 83% | Percent Growth (RXF-631; Log10 Concentration -8.0): 106% | TGI (RXF-631; PG=0): 24.3 µM | GI50 (RXF-631; PG=+50): 0.536 µM | CC50 (RXF-631; read-out: LC-50, PG=-50): > 100 µM | GI50 (LXFL 529; LXFL 529): 0.129 µM | CC50 (LXFL 529; LXFL 529, read-out: LC-50): 29.1 µM | activity at 0.01 µM (LXFL 529; [4]): 66% | activity at 0.1 µM (LXFL 529; [4]): 54% | activity at 1 µM (LXFL 529; [4]): 14% | activity at 10 µM (LXFL 529; [4]): -38% | activity at 100 µM (LXFL 529; [4]): -64% | IC (TGI) (LXFL 529; LXFL 529, read-out: TGI): 1.88 µM | GI50 (EKVX): 0.774 µM | activity at 0.01 µM (EKVX; read-out: Percent Growth): 114% | activity at 0.1 µM (EKVX; read-out: Percent Growth): 108% | activity at 1 µM (EKVX; read-out: Percent Growth): 43% | activity at 10 µM (EKVX; read-out: Percent Growth): 3% | activity at 100 µM (EKVX; read-out: Percent Growth): -11% | IC (TGI) (EKVX; read-out: TGI): 16.5 µM | GI50 (786-0; 786-0): 0.0408 µM | CC50 (786-0; 786-0, read-out: LC-50): 66.7 µM | activity at 0.01 µM (786-0; [5]): 69% | activity at 0.1 µM (786-0; [5]): 38% | activity at 1 µM (786-0; [5]): 3% | activity at 10 µM (786-0; [5]): -20% | activity at 100 µM (786-0; [5]): -56% | IC (TGI) (786-0; 786-0, read-out: TGI): 1.3 µM
